# Columns and labels:
# Test in all cases: SelectScreen kinase profiling, SSBK LanthaScreen Binding SP Technology
# [1] = molecular target: kinase named in conditions (Homo sapiens, UniProt Q12866, A708S); conditions: MERTK (cMER) A708S, 10 μM
# Experimental: (§1) Kinase selectivity screening was performed by Thermo Fisher Scientific (Paisley, U.K.) in their SelectScreen Biochemical Kinase Profiling Service. Assay information and data are presented in the Supporting Information.
# (§2) Kinase selectivity screening was performed by ThermoFisher Scientific (Paisley, U.K.) in their SelectScreenTM
# (§3) Biochemical Kinase Profiling service .
# (§4) Illustration reproduced courtesy of Cell Signaling technology, Inc.
# (§5) (B) Illustration of phylogenetic tree of kinases screened.
# [2] = molecular target: kinase named in conditions (Homo sapiens, UniProt P53779); conditions: MAPK10 (JNK3), 10 μM
# Experimental: as §1, §2, §3, §4, §5
# [3] = molecular target: kinase named in conditions (Homo sapiens, UniProt Q9UM73, C1156Y); conditions: ALK C1156Y, 10 μM
# Experimental: as §1, §2, §3, §4, §5
# [4] = molecular target: kinase named in conditions (Homo sapiens, UniProt Q9Y2H1); conditions: STK38L (NDR2), 10 μM
# Experimental: as §1, §2, §3, §4, §5
# [5] = molecular target: kinase named in conditions (Homo sapiens, UniProt Q15375); conditions: EPHA7, 10 μM
# Experimental: as §1, §2, §3, §4, §5
# [6] = molecular target: kinase named in conditions (Homo sapiens, UniProt Q9UIK4); conditions: DAPK2, 10 μM
# Experimental: as §1, §2, §3, §4, §5
# [7] = molecular target: kinase named in conditions (Homo sapiens, UniProt Q02763, Y1108F); conditions: TEK (TIE2) Y1108F, 10 μM
# Experimental: as §1, §2, §3, §4, §5
# [8] = molecular target: kinase named in conditions (Homo sapiens, UniProt Q96GX5); conditions: MASTL, 10 μM
# Experimental: as §1, §2, §3, §4, §5
# [9] = molecular target: kinase named in conditions (Homo sapiens, UniProt Q9Y2U5); conditions: MAP3K2 (MEKK2), 10 μM
# Experimental: as §1, §2, §3, §4, §5
# [10] = molecular target: kinase named in conditions (Homo sapiens, UniProt P10721, V654A); conditions: KIT V654A, 10 μM
# Experimental: as §1, §2, §3, §4, §5
# [11] = molecular target: kinase named in conditions (Homo sapiens, UniProt Q5TCX8); conditions: MLK4, 10 μM
# Experimental: as §1, §2, §3, §4, §5
# [12] = molecular target: kinase named in conditions (Homo sapiens, UniProt P45983); conditions: MAPK8 (JNK1), 10 μM
# Experimental: as §1, §2, §3, §4, §5
# [13] = molecular target: kinase named in conditions (Homo sapiens, UniProt Q86Y07); conditions: VRK2, 10 μM
# Experimental: as §1, §2, §3, §4, §5
# [14] = molecular target: kinase named in conditions (Homo sapiens, UniProt P37173); conditions: TGFBR2, 10 μM
# Experimental: as §1, §2, §3, §4, §5
# [15] = molecular target: kinase named in conditions (Homo sapiens, UniProt Q99640); conditions: PKMYT1, 10 μM
# Experimental: as §1, §2, §3, §4, §5
# [16] = molecular target: kinase named in conditions (Homo sapiens, UniProt P07949, V804M); conditions: RET V804M, 10 μM
# Experimental: as §1, §2, §3, §4, §5
# [17] = molecular target: kinase named in conditions (Homo sapiens, UniProt O14976); conditions: GAK, 10 μM
# Experimental: as §1, §2, §3, §4, §5
# [18] = molecular target: kinase named in conditions (Homo sapiens, UniProt P53667); conditions: LIMK1, 10 μM
# Experimental: as §1, §2, §3, §4, §5
# [19] = molecular target: kinase named in conditions (Homo sapiens, UniProt Q9UEE5); conditions: STK17A (DRAK1), 10 μM
# Experimental: as §1, §2, §3, §4, §5
# [20] = molecular target: kinase named in conditions (Homo sapiens, UniProt Q76MJ5); conditions: ERN2, 10 μM
# Experimental: as §1, §2, §3, §4, §5
# [21] = molecular target: kinase named in conditions (Homo sapiens, UniProt Q9H2G2); conditions: SLK, 10 μM
# Experimental: as §1, §2, §3, §4, §5
# [22] = molecular target: kinase named in conditions (Homo sapiens, UniProt Q8IVH8); conditions: MAP4K3 (GLK), 10 μM
# Experimental: as §1, §2, §3, §4, §5
# [23] = molecular target: kinase named in conditions (Homo sapiens, UniProt P42680); conditions: TEC, 10 μM
# Experimental: as §1, §2, §3, §4, §5
# [24] = molecular target: kinase named in conditions (Homo sapiens, UniProt P15056, V600E); conditions: BRAF V599E, 10 μM
# Experimental: as §1, §2, §3, §4, §5
# [25] = molecular target: kinase named in conditions (Homo sapiens, UniProt Q16513); conditions: PKN2 (PRK2), 10 μM
# Experimental: as §1, §2, §3, §4, §5
# [26] = molecular target: kinase named in conditions (Homo sapiens, UniProt Q9Y3S1); conditions: WNK2, 10 μM
# Experimental: as §1, §2, §3, §4, §5
# [27] = molecular target: kinase named in conditions (Homo sapiens, UniProt Q13705); conditions: ACVR2B, 10 μM
# Experimental: as §1, §2, §3, §4, §5
# [28] = molecular target: kinase named in conditions (Homo sapiens, UniProt Q15835); conditions: GRK1, 10 μM
# Experimental: as §1, §2, §3, §4, §5
# [29] = molecular target: kinase named in conditions (Homo sapiens, UniProt Q16832, N456S); conditions: DDR2 N456S, 10 μM
# Experimental: as §1, §2, §3, §4, §5
# [30] = molecular target: kinase named in conditions (Homo sapiens, UniProt P04049, Y340D/Y341D); conditions: RAF1 (cRAF) Y340D Y341D, 10 μM
# Experimental: as §1, §2, §3, §4, §5
# [31] = molecular target: kinase named in conditions (Homo sapiens, UniProt Q16832, T654M); conditions: DDR2 T654M, 10 μM
# Experimental: as §1, §2, §3, §4, §5
# [32] = molecular target: kinase named in conditions (Homo sapiens, UniProt O43353); conditions: RIPK2, 10 μM
# Experimental: as §1, §2, §3, §4, §5
# [33] = molecular target: kinase named in conditions (Homo sapiens, UniProt Q9BWU1); conditions: 10 μM
# Experimental: as §1, §2, §3, §4, §5
# [34] = molecular target: kinase named in conditions (Homo sapiens, UniProt Q86UX6); conditions: STK32C (YANK3), 10 μM
# Experimental: as §1, §2, §3, §4, §5
# kinase named in conditions (Homo sapiens, UniProt Q9BWU1), sequence (Q9BWU1 whole entry): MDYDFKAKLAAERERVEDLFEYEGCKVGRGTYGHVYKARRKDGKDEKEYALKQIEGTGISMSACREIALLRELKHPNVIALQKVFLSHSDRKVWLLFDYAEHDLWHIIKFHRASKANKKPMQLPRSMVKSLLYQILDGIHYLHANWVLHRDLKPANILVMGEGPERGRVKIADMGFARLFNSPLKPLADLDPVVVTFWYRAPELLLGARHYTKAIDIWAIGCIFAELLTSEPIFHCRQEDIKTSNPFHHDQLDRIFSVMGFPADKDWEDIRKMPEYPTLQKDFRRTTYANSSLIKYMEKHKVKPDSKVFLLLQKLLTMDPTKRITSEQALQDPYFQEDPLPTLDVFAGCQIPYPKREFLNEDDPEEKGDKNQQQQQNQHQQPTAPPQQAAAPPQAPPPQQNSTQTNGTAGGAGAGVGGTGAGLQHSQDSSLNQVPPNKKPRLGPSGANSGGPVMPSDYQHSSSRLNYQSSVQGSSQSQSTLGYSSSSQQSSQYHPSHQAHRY
# kinase named in conditions (Homo sapiens, UniProt Q02763, Y1108F), sequence (Q02763 23-1124 Y1108F): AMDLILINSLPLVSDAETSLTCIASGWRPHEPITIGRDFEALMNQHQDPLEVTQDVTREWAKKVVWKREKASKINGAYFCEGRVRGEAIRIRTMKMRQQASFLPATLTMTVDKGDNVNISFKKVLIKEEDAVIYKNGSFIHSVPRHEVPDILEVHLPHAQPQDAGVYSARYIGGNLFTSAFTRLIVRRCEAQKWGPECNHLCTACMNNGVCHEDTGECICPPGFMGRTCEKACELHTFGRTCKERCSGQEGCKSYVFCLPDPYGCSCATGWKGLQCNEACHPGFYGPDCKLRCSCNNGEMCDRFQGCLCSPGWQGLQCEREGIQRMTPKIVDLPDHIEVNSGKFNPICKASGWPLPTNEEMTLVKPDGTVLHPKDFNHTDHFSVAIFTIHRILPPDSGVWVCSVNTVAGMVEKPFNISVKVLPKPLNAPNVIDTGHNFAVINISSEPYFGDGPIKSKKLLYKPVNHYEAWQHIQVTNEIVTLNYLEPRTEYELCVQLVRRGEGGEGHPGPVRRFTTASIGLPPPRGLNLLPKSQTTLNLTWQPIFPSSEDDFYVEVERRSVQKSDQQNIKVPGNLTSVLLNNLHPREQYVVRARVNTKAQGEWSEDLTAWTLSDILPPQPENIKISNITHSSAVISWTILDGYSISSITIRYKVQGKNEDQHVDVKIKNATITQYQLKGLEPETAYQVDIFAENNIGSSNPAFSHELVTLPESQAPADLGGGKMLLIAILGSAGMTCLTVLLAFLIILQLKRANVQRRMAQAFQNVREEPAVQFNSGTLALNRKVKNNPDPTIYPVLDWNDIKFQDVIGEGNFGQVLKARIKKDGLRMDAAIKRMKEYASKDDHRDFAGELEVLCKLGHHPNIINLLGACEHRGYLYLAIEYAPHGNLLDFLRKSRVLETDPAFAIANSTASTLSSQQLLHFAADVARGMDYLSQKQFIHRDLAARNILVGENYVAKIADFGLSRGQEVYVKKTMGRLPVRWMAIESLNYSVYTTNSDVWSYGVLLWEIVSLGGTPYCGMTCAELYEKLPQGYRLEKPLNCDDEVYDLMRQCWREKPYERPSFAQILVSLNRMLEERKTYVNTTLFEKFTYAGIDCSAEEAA
# kinase named in conditions (Homo sapiens, UniProt Q86Y07), sequence (Q86Y07 whole entry): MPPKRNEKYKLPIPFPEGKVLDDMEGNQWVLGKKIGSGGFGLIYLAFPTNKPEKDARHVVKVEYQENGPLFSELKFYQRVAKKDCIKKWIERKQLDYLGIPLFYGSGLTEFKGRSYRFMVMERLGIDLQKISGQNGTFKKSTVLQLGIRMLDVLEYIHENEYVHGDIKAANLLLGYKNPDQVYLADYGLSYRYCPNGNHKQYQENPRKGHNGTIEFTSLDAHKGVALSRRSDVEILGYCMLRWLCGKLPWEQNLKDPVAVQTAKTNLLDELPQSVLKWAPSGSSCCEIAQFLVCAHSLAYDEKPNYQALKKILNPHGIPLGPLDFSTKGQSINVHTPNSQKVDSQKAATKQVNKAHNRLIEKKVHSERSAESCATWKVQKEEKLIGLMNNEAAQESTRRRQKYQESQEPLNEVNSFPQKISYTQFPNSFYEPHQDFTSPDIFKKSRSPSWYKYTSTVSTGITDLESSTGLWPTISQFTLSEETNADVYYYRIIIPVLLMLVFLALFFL
# kinase named in conditions (Homo sapiens, UniProt P15056, V600E), sequence (P15056 whole entry V600E): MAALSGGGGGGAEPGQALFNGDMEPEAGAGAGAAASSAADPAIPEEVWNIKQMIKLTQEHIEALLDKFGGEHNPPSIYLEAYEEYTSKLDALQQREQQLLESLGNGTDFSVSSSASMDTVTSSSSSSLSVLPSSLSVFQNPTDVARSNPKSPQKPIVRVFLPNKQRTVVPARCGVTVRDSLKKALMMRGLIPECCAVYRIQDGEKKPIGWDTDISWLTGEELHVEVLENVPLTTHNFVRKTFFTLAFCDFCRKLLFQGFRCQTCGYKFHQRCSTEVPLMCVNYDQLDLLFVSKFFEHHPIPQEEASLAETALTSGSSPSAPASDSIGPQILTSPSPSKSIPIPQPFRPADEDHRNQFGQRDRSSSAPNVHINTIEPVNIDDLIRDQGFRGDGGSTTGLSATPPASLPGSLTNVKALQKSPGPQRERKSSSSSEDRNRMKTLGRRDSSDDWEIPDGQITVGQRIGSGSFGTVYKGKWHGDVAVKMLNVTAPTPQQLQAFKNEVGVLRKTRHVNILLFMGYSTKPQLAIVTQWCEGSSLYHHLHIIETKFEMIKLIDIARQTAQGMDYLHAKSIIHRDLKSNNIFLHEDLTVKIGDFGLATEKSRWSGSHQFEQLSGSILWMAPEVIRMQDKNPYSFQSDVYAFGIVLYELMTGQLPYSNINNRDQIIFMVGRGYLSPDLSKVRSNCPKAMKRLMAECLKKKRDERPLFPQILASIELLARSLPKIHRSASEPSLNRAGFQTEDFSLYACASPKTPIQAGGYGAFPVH
# kinase named in conditions (Homo sapiens, UniProt Q96GX5), sequence (Q96GX5 whole entry): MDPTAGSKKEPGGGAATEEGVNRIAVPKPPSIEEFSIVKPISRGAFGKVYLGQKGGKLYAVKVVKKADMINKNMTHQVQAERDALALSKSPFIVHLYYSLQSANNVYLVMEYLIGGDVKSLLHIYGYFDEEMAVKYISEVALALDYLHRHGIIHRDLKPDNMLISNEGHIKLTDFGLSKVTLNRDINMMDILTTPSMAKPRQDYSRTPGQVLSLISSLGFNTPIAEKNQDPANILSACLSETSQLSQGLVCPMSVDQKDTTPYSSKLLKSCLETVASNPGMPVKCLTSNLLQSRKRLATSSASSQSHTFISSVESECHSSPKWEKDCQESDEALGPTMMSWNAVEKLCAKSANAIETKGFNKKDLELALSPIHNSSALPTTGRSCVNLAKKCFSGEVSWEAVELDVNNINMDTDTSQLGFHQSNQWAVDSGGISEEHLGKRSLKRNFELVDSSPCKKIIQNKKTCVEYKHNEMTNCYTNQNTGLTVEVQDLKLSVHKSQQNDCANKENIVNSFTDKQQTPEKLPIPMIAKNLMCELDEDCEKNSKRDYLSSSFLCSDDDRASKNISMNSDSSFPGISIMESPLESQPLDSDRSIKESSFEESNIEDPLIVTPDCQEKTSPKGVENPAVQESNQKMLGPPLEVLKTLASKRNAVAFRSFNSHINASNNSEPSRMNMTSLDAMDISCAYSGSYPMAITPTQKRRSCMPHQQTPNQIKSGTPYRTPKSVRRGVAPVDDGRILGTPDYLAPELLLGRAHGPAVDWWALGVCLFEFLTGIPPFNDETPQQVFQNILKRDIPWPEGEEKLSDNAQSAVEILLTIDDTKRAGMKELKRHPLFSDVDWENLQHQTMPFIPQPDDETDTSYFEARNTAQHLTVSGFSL
# kinase named in conditions (Homo sapiens, UniProt Q15375), sequence (Q15375 28-998): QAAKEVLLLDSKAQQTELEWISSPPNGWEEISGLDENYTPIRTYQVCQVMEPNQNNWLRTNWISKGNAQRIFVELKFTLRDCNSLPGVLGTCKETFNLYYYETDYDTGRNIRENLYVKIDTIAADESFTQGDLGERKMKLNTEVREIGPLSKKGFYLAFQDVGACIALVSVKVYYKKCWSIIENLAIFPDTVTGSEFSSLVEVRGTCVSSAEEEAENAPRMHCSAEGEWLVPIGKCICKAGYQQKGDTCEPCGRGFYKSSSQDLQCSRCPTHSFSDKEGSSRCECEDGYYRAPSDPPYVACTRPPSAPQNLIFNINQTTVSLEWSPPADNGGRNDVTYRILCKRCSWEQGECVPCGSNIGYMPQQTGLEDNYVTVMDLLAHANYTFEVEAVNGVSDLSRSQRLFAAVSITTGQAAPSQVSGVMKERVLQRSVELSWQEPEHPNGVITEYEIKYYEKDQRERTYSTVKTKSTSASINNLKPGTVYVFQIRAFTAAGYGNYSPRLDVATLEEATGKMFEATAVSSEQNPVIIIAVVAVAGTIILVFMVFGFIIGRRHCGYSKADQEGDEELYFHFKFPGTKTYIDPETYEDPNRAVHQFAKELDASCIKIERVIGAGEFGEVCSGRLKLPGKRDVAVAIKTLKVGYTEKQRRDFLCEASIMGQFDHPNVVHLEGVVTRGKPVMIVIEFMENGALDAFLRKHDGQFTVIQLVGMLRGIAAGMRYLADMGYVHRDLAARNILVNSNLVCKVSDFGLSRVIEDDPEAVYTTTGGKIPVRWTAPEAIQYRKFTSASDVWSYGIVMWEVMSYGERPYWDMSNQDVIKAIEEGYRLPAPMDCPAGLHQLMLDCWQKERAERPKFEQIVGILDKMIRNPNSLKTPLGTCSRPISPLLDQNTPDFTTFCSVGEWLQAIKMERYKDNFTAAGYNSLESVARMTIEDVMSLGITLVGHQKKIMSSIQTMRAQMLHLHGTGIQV
structure (smiles),measurement,setting,value
"FC(F)(F)c1c(Cl)ccc(-n2ccnn2)c1Cl [8l, 1-(2,4-Dichloro-3-(trifluoromethyl)phenyl)-1H-1,2,3-triazole]",inhibition at 10 µM,[1],-3%
same,inhibition at 10 µM,[2],-1%
same,inhibition at 10 µM,[3],4%
same,inhibition at 10 µM,[4],15%
same,inhibition at 10 µM,[5],0%
same,inhibition at 10 µM,[6],23%
same,inhibition at 10 µM,[7],-9%
same,inhibition at 10 µM,[8],-8%
same,inhibition at 10 µM,[9],11%
same,inhibition at 10 µM,[10],14%
same,inhibition at 10 µM,[11],11%
same,inhibition at 10 µM,[12],-9%
same,inhibition at 10 µM,[13],-11%
same,inhibition at 10 µM,[14],7%
same,inhibition at 10 µM,[15],0%
same,inhibition at 10 µM,[16],8%
same,inhibition at 10 µM,[17],17%
same,inhibition at 10 µM,[18],6%
same,inhibition at 10 µM,[19],13%
same,inhibition at 10 µM,[20],9%
same,inhibition at 10 µM,[21],4%
same,inhibition at 10 µM,[22],6%
same,inhibition at 10 µM,[23],0%
same,inhibition at 10 µM,[24],0%
same,inhibition at 10 µM,[25],-4%
same,inhibition at 10 µM,[26],2%
same,inhibition at 10 µM,[27],1%
same,inhibition at 10 µM,[28],3%
same,inhibition at 10 µM,[29],26%
same,inhibition at 10 µM,[30],-3%
same,inhibition at 10 µM,[31],-9%
same,inhibition at 10 µM,[32],5%
same,inhibition at 10 µM,[33]; CDK11 (Inactive),12%
same,inhibition at 10 µM,[33]; CDK11/cyclin C,23%
same,inhibition at 10 µM,[34],8%
